Measurements taken from patent US7005274B1, “Methods and compositions for diagnosing and treating arthritic disorders and regulating bone mass” (MIGENIX Corp., priority 1999, dated 2006).

Key:
Articular Chondrocytes = assay: Intracellular ATP, luciferase assay; format: cell-based, human; conditions: 10 ng/ml TGFβ, 0.025 mM antimycin A, 0.02 μg/ml oligomycin; mean ± SD
Experimental: Human articular cartilage chondrocytes were obtained by collagenase digestion of articular cartilage samples, and subsequent monolayer culture, essentially as described by Terkeltaub et al. (Arthritis Rheum. 41:2152–2164, 1998). The starting material for these primary cultures was human articular cartilage excised during surgical joint replacement, or obtained at autopsy from normal or osteoarthritic joints. The articular chondrocytes were grown in Dulbecco's modified Eagle's Medium with high glucose (DMEM high glucose, Life Technologies, Inc. Grand Island, N.Y.) with 10% fetal calf serum (FCS), 1% glutamine, 100 U/ml penicillin and 50 μg/ml streptomycin (all reagents from Sigma, St. Louis, Mo., unless otherwise noted). Typically, only first passage cells were used in the studies described herein.
Levels of total cellular ATP were measured by a modification of luciferase-based assays known in the art (Lin et al., Anal. Biochem. 24:531–540, 1968); related assays and modifications may alternatively be used (see, e.g., Turman et al., In Vitro Cell. Dev. Biol. Anim. 32:1–4, 1996, for an assay format that uses a fluorescent plate reader). In brief, 2×10^6 cells were washed and pelleted in 10 ml phosphate-buffered saline (PBS). The cell pellets were snap-frozen in a dry ice/ethanol bath, after which […] of 0.2 M HCl was added, followed by 0.3 ml of 2 mM glycine (pH 9.0). Samples were heated at 100° C. for five minutes, then placed on ice. A standard curve was developed using 0 to 500 pmol of purified ATP (disodium salt). One hundred (100) μl of the cell extract, or purified ATP standard, was added to an equal volume of the ATP assay mixture (containing MgSO4, DTT, EDTA, luciferase and luciferin, all from the Sigma Bioluminescence Assay Kit and all diluted 1:25). Following a 5 second incubation and 15 second integration, samples were read on a TD-20/20 Luminometer (Turner Designs, Sunnyvale, Calif.). […]

TC28 cells = assay: Intracellular ATP, luciferase assay; format: cell-based; conditions: 10 ng/ml TGFβ, 0.025 mM antimycin A, 0.02 μg/ml oligomycin; mean ± SD
Experimental: Levels of total cellular ATP were measured by a modification of luciferase-based assays known in the art (Lin et al., Anal. Biochem. 24:531–540, 1968); related assays and modifications may alternatively be used (see, e.g., Turman et al., In Vitro Cell. Dev. Biol. Anim. 32:1–4, 1996, for an assay format that uses a fluorescent plate reader). In brief, 2×10^6 cells were washed and pelleted in 10 ml phosphate-buffered saline (PBS). The cell pellets were snap-frozen in a dry ice/ethanol bath, after which […] of 0.2 M HCl was added, followed by 0.3 ml of 2 mM glycine (pH 9.0). Samples were heated at 100° C. for five minutes, then placed on ice. A standard curve was developed using 0 to 500 pmol of purified ATP (disodium salt). One hundred (100) μl of the cell extract, or purified ATP standard, was added to an equal volume of the ATP assay mixture (containing MgSO4, DTT, EDTA, luciferase and luciferin, all from the Sigma Bioluminescence Assay Kit and all diluted 1:25). Following a 5 second incubation and 15 second integration, samples were read on a TD-20/20 Luminometer (Turner Designs, Sunnyvale, Calif.).

[1] = system: articular chondrocytes and TC28 cells; assay: Oxygen consumption with a Clark electrode (respiratory rate); format: cell-based, human; conditions: SIN-1 500 μM; NOC-12 250 μM; antimycin A and oligomycin concentration not stated
chondrocytes = assay: Extracellular and intracellular PPi elaboration; format: cell-based, human; conditions: for ability of TGFβ to increase extracellular and intracellular PPi: TGFβ 10 ng/ml; for basal PPi elaboration: absence of TGFβ
Experimental: One set of experiments described in this Example and presented in FIG. 4 examined the effects of agents that inhibit mitochondrial function on PPi elaboration in the absence of TGFβ. Chondrocytes (primary cultures and immortalized cell line TC-28) were prepared, cultured and treated with oligomycin (FIG. 4A), or with antimycin A (FIG. 4B), as in the preceding Examples. Extracellular PPi was determined radiometrically, and equalized for cellular DNA, according to the method of Terkeltaub et al. (Arthritis Rheum. 41:2152–2164, 1998). To determine intracellular PPi levels, washed cells were heated at 65° C. for 45 minutes, washed again and lysed in lysis buffer (1% Triton X-100, 1.6 mM MgCl2, 0.2 M Tris, pH 8.1), essentially according to the procedures described by Lotz et al. (Proc. Natl. Acad. Sci. U.S.A. 92:10364–10368, 1995).
Another set of experiments examined the ability of inhibitors of mitochondrial function to impact the ability of TGFβ to increase intracellular and extracellular PPi levels. Antimycin A- (FIG. 4B) or oligomycin-treated (FIG. 4A) chondrocytes, as well as control (untreated) cells, prepared as described in the preceding Examples, were incubated with or without TGFβ (10 ng/ml), and levels of extracellular and intracellular PPi levels were determined.

[2] = system: TC28 cells or articular chondrocytes expressing NTPPPH PC-1; assay: PPi elaboration by PC-1 transfectants; format: cell-based; conditions: in the presence of antimycin A or oligomycin
Experimental: In related experiments, the effects on PPi elaboration by PC-1 transfectants of either oligomycin or antimycin A, alone or in combination with TGFβ, were determined (FIG. 4). Briefly, transient transfections were performed on 5×10^5 TC28 cells in a 35 mm tissue culture dish using Lipofectamine Plus™ (Life Technologies, Grand Island, N.Y.). Empty plasmid DNA (2 μg) or wild-type human PC-1-encoding DNA in plasmid pcDNA3.1 (2 μg) (Johnson et al., 1999 Arth. Rheum. 42:1986; Terkeltaub et al., 1994 Arthritis Rheum. 37:934–41) was added to the lipid reagent following a complex formation of the DNA to the “Plus” reagent according to the supplier's instructions, and then incubated with cells for 3 hours at 37° C. in DMEM/Fi2 medium containing 1% FCS. Cells were then washed with phosphate buffered saline (PBS), returned to complete culture medium and incubated an additional 72 hours. […] For adenoviral gene transfer, the protocol of Johnson et al. was followed (1999 Arth. Rheum. 42:1986) using articular chondrocytes which, unlike TC28 cells, cannot be efficiently transfected with plasmid DNA. […] In sum, mitochondrial function, particularly oxidative phosphorylation, appeared to provide ATP that was critical for extracellular matrix synthesis and PPi elaboration in chondrocytes.

NTPPPH = assay: Cell-associated NTPPPH activity (control study); format: cell-based; conditions: not shown
alkaline phosphatase = assay: PPi-degrading alkaline phosphatase activity (control study); format: cell-based; conditions: not shown

CC[C@H]1/C=C/C=C/C[C@@H](C)[C@H](O)[C@@](C)(O)C(=O)[C@@H](C)[C@H](O)[C@@H](C)C(=O)[C@@H](C)[C@H](O)[C@@H](C)/C=C/C(=O)O[C@@H]2[C@H](C)[C@H](CC1)O[C@]1(CC[C@H](C)[C@H](C[C@@H](C)O)O1)[C@H]2C [oligomycin]
ATP (pmoles/μg DNA): Articular Chondrocytes (Articular Chondrocytes): 221.2 ± 14.0 pmoles/μg DNA
ATP (pmoles/μg DNA):TC28 cells (TC28 cells): 198.6 ± 3.7 pmoles/μg DNA
respiratory rates [1]: inhibited respiratory rates
ability of TGFβ to increase extracellular and intracellular PPi (chondrocytes): abrogated the ability of TGFβ to increase extracellular and intracellular PPi
basal PPi elaboration (chondrocytes): attenuated basal PPi elaboration
intracellular and extracellular PPi levels in NTPPPH PC-1 transfectants [2]: unable to increase intracellular and extracellular PPi levels
cell-associated NTPPPH activity (NTPPPH): neither oligomycin nor antimycin treatment suppressed cell-associated NTPPPH activity
PPi-degrading alkaline phosphatase activity (alkaline phosphatase): neither agent altered PPi-degrading alkaline phosphatase activity

antimycin A
ATP (pmoles/μg DNA): Articular Chondrocytes (Articular Chondrocytes): 93.73 ± 5.9 pmoles/μg DNA
ATP (pmoles/μg DNA):TC28 cells (TC28 cells): 69.78 ± 4.0 pmoles/μg DNA
respiratory rates [1]: inhibited respiratory rates
ability of TGFβ to increase extracellular and intracellular PPi (chondrocytes): abrogated the ability of TGFβ to increase extracellular and intracellular PPi
basal PPi elaboration (chondrocytes): attenuated basal PPi elaboration
intracellular and extracellular PPi levels in NTPPPH PC-1 transfectants [2]: unable to increase intracellular and extracellular PPi levels
cell-associated NTPPPH activity (NTPPPH): neither oligomycin nor antimycin treatment suppressed cell-associated NTPPPH activity
PPi-degrading alkaline phosphatase activity (alkaline phosphatase): neither agent altered PPi-degrading alkaline phosphatase activity
